Measured values as given in ChEMBL document CHEMBL4823274, “Discovery of chiral N-2'-aryletheryl-1'-alkoxy-ethyl substituted arylisoquinolones with anti-inflammatory activity from the nucleophilic addition reactions of the thiophenols and oxazolinium” (Eur J Med Chem, 2021).
Calls of active or inactive are those of the source. The rule behind the calls is not given here.

How the values were obtained:
RAW264.7 [1] = assay: Antiinflammatory activity against LPS-stimulated mouse RAW264.7 cells assessed inhibition of TNFalpha release at 0.5 uM incubated for 24 hrs in presence of LPS by ELISA; assay type: functional
[2] = Cytotoxicity against mouse RAW264.7 cells assessed as cell viability at 0.5 uM incubated for 24 hrs by CCK8 assay; assay type: cell-based; conditions: read-out: Activity
[3] = Cytotoxicity against mouse RAW264.7 cells assessed as reduction in cell viability incubated for 24 hrs by CCK8 assay; assay type: cell-based
RAW264.7 [4] = assay: Antiinflammatory activity against LPS-stimulated mouse RAW264.7 cells assessed inhibition of TNFalpha release incubated for 24 hrs in presence of LPS by ELISA; assay type: functional, cell-based; conditions: RAW264.7, 24 h
[5] = target: T1, Estrogen receptor (Homo sapiens) (UniProt P03372); assay: Binding affinity to human ERalpha LBD measured after 2 hrs by competitive fluorometric binding assay relative to 17beta-estradiol
T1 sequence (whole entry): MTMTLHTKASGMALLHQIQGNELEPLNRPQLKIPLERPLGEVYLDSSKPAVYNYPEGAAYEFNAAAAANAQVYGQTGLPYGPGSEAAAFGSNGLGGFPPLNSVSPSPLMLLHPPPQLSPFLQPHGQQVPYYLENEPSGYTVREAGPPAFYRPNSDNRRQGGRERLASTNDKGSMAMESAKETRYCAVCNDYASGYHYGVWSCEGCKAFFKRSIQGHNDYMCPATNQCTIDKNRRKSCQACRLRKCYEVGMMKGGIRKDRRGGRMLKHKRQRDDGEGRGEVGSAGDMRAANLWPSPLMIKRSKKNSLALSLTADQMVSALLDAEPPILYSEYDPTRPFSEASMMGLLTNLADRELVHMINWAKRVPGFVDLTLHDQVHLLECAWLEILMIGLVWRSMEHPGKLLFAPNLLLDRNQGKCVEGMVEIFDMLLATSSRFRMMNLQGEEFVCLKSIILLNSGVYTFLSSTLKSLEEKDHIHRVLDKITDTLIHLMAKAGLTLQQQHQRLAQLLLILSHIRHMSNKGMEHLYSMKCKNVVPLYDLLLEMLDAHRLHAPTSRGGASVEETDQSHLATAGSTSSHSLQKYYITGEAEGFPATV

Estrogen receptor beta [6] = target: T2, Estrogen receptor beta (Homo sapiens, UniProt Q92731); assay: Binding affinity to human ERbeta LBD measured after 2 hrs by competitive fluorometric binding assay relative to 17beta-estradiol
T2 sequence (Q92731 whole entry, the tested form may be a part): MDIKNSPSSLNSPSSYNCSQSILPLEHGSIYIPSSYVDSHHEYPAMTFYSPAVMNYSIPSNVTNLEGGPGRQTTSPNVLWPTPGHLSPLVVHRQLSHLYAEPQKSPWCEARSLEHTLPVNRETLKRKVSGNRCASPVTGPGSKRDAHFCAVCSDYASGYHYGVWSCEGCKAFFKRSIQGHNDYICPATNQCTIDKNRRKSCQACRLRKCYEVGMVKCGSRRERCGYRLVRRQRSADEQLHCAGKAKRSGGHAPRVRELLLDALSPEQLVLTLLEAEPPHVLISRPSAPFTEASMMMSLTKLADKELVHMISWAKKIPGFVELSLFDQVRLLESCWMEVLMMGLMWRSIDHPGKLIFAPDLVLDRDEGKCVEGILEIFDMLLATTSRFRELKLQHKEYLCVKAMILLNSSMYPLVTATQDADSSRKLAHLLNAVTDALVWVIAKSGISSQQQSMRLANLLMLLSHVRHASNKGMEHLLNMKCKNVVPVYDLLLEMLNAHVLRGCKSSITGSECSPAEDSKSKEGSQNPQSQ

Homo sapiens [7] = species on record: Homo sapiens; assay: Selectivity ratio of relative binding affinity for human ERalpha LBD to relative binding affinity for human ERbeta LBD
Estrogen receptor = target: T3, Estrogen receptor (Homo sapiens, UniProt P03372); assay: Binding affinity to human ERalpha LBD measured after 2 hrs by competitive fluorometric binding assay
T3 sequence (P03372 whole entry): T1 sequence (whole entry)

Estrogen receptor beta [8] = target: T2, Estrogen receptor beta; assay: Binding affinity to human ERbeta LBD measured after 2 hrs by competitive fluorometric binding assay
Mus musculus [9] = assay: Antiinflammatory activity against DSS-induced ulcerative colitis C57BL/6J mouse model assessed as reduction in body weight loss at 30 mg/kg, po administered daily via gavage and measured for 11 days; assay type: functional, organism-based; conditions: time 11.0 day
Mus musculus [10] = assay: Antiinflammatory activity against DSS-induced ulcerative colitis C57BL/6J mouse model assessed as reduction in disease activity index at 30 mg/kg, po administered daily via gavage and measured for 11 days; assay type: functional, organism-based; conditions: time 11.0 day
Mus musculus [11] = assay: Antiinflammatory activity against DSS-induced ulcerative colitis C57BL/6J mouse model assessed as restoration of normal stool consistency at 30 mg/kg, po administered daily via gavage and measured for 11 days; assay type: functional, organism-based; conditions: time 11.0 day
Mus musculus [12] = assay: Antiinflammatory activity against DSS-induced ulcerative colitis C57BL/6J mouse model assessed as reduction in fecal occult blood at 30 mg/kg, po administered daily via gavage and measured for 11 days; assay type: functional, organism-based; conditions: time 11.0 day
Homo sapiens [13] = species on record: Homo sapiens; assay: Selectivity ratio of Ki for human ERalpha LBD to Ki for human ERbeta LBD

Structure (SMILES) | inhibition at 0.5 µM (RAW264.7 [1]) [%] | viability at 24 h, 0.5 µM [2] [%] | further results
COc1ccc2cc(-c3ccc4c(c3)OCO4)n(C(CSc3ccc(F)cc3)OC)c(=O)c2c1OC (centres undefined) | 77.4 | 77.8 | –
COc1ccc2cc(-c3ccc4c(c3)OCO4)n(C(CSc3ccc(C(F)(F)F)cc3)OC)c(=O)c2c1OC (centres undefined) | 72.9 | 98 | –
COc1ccc2cc(-c3ccc4c(c3)OCO4)n([C@@H](COc3ccc([N+](=O)[O-])cc3)OC)c(=O)c2c1OC | – | – | CC50 at 24 h [3]: 1820 nM; IC50 (RAW264.7 [4]): 14 nM; RBA [5]: 0.24%; RBA (Estrogen receptor beta [6]): 1.04%; Ratio (Homo sapiens [7]): 0.23; Ki (Estrogen receptor): 2320 nM; Ki (Estrogen receptor beta [8]): 761 nM; Activity (Mus musculus [9]): Active; Activity (Mus musculus [10]): Active; Activity (Mus musculus [11]): Active; Activity (Mus musculus [12]): Active; Ratio Ki (Homo sapiens [13]): 3
COc1ccc2cc(-c3ccc4c(c3)OCO4)n([C@H](COc3ccc([N+](=O)[O-])cc3)OC)c(=O)c2c1OC | – | – | CC50 at 24 h [3]: > 2500 nM; IC50 (RAW264.7 [4]): > 10000 nM; RBA [5]: 0.03%; RBA (Estrogen receptor beta [6]): 0.03%; Ratio (Homo sapiens [7]): 1; Ki (Estrogen receptor): 17100 nM; Ki (Estrogen receptor beta [8]): 25600 nM
COc1ccc2cc(-c3ccc4c(c3)OCO4)n(C(CSc3cc(C(F)(F)F)cc(C(F)(F)F)c3)OC)c(=O)c2c1OC (centres undefined) | 78.3 | 82.8 | –
COc1ccc2cc(-c3ccc4c(c3)OCO4)n(C(CSc3ccccc3)OC)c(=O)c2c1OC (centres undefined) | 49.4 | 85.4 | –
COc1ccc2cc(-c3ccc4c(c3)OCO4)n(C(CSc3ccc([N+](=O)[O-])cc3)OC)c(=O)c2c1OC (centres undefined) | 87.8 | 80.1 | –
COc1ccc2cc(-c3ccc4c(c3)OCO4)n(C(CSc3ccccc3Br)OC)c(=O)c2c1OC (centres undefined) | 80.7 | 80.7 | –
COc1ccc2cc(-c3ccc4c(c3)OCO4)n(C(CSc3cccc(C(F)(F)F)c3)OC)c(=O)c2c1OC (centres undefined) | 69.2 | 93.3 | –
COc1ccc2cc(-c3ccc4c(c3)OCO4)n([C@H](CSc3ccc([N+](=O)[O-])cc3)OC)c(=O)c2c1OC | – | – | CC50 at 24 h [3]: > 2500 nM; IC50 (RAW264.7 [4]): > 2500 nM
COc1ccc2cc(-c3ccc4c(c3)OCO4)n(C(CSc3cccc(Br)c3)OC)c(=O)c2c1OC (centres undefined) | 36.1 | 57 | –
COc1ccc2cc3[n+](cc2c1OC)CCc1cc2c(cc1-3)OCO2 [BERBERINE] | 4.1 | 129 | –
COc1ccc(SCC(OC)n2c(-c3ccc4c(c3)OCO4)cc3ccc(OC)c(OC)c3c2=O)cc1 (centres undefined) | -3.4 | 80.8 | –
COc1ccc2cc(-c3ccc4c(c3)OCO4)n(C(CSc3nc(C)cc(C)n3)OC)c(=O)c2c1OC (centres undefined) | 69.7 | 101 | –
COc1ccc2cc(-c3ccc4c(c3)OCO4)n(C(CSc3ccc(Br)cc3)OC)c(=O)c2c1OC (centres undefined) | 84.5 | 70.9 | –
COc1ccc2cc(-c3ccc4c(c3)OCO4)n([C@@H](CSc3ccc([N+](=O)[O-])cc3)OC)c(=O)c2c1OC | – | – | CC50 at 24 h [3]: 7040 nM; IC50 (RAW264.7 [4]): 56 nM
COc1ccc2cc(-c3ccc4c(c3)OCO4)n(C(CSc3ccc(C)cc3)OC)c(=O)c2c1OC (centres undefined) | 79.6 | 70.4 | –
